Data set [1] deals with HCMV. The experiment in a line: HCMV plaque (focus) reduction assay. The data set is classed as cell-based. As to conditions: Human betaherpesvirus 5; Table 1; HFF cells; read-out: 50% Inhibitory Concentration HCMV Plaque. From the text: (§1) The 148 strain of HSV-1 was used in most experiments and was provided by Dr. T. W. Schafer of Schering corporation. The HF strain of HSV-1 was used in selected experiments and was obtained from Dr. G. H. Cohen, University of Pennsylvania. The Towne strain, plaque-purified isolate Po, of HCMV was a gift of Dr. Mark Stinski, University of Iowa.
(§2) HCMV was titered in 24-well cluster dishes which were planted to contain 5×10^4 cells/well, grown as described above. When the cells were 70 to 80% confluent, 0.2 ml of the virus suspension was added per wall and adsorbed as described above. At least three ten-fold dilutions of each preparation were used. Following virus adsorption, the cell sheets were overlayed with 0.5% methocel (4000 CPS) in maintenance medium [MEM(E) with 1.1 gm/liter NaHCO3, 100 units/ml penicillin G, 100 μg/ml streptomycin, and 5% fetal bovine serum]. The cultures were incubated in a humidified atmosphere of 4% CO2 -96% air. Viral foci were visible 5 to 7 days after infection using at least 10-fold magnification. Cells were fixed and stained by a 10-minute exposure to a 0.1% solution of crystal violet in 20% methanol 7 to 12 days after infection. Microscopic foci were enumerated at 20-fold magnification using a Nikon Profile Projector.
(§3) The effect of compounds of the replication of HCMV has been measured using both a plaque (focus) reduction assay and a titer (yield) reduction assay. For the former, HFF cells in 24-well culture dishes were infected with approximately 50 p.f.u. of HCMV per well using the procedures detailed above. Compounds dissolved in growth medium were added in three to six selected concentrations to triplicate wells following virus adsorption. Following incubation at 37° C. for 7 to 10 days, cell sheets were fixed, stained and microscopic foci were enumerated as described above. Drug effects were calculated as a percentage of reduction in number of foci in the presence of each drug concentration compared to the number observed in the absence of drug. DHPG (ganciclovir) was used as a positive control in all experiments.
(§4) Dose-response relationships were used to compare drug effects. These were constructed by linearly regressing the percent inhibition of parameters derived in the preceding sections against log drug concentrations. The 50% inhibitory (I50) concentrations were calculated from the regression lines using the methods described by Goldstein. See Goldstein, A., Biostatistics: An Introductory Text, MacMillan, N.Y., 1964, pp. 156-161. Along with the I50 concentration for visual cytotoxicity, the averaged I50 concentrations are compared to I50 concentrations for inhibition for HCMV or HSV-1 replication. Compounds for which the ratio of cytotoxicity I50 concentrations to antiviral I50 concentrations (in vitro therapeutic index) were greater than 10, were considered for further study.

Data set [2] concerns HCMV. The data set is described as follows: HCMV titer (yield) reduction assay. The data set is classed as cell-based. Particulars: Human betaherpesvirus 5; for IC90: Table 1, I90, HFF cells, read-out: HCMV Yield, 90% inhibitory concentration (I90).
From the text: as §1, §2
(§5) For titer reduction analysis, HFF cells were planted as described above in 24-well cluster dishes or in 25 cm^2 flasks. When monolayers were approximately 70% confluent, HCMV was added at a m.o.i. of 0.5 p.f.u. per cell and adsorbed as detailed above. Compounds dissolved in growth medium were added in one or one-half logarithm10 dilutions and incubation continued at 37° C. After 7 to 10 days of incubation, culture dishes or flasks were frozen at […] For titer determination, cells were thawed and then subjected to two more cycles of freezing and thawing at 37° C. Serial, one-logarithm10 dilutions of the final suspension were prepared and inoculated onto new cultures of HFF cells. Titer determination was as detailed above in part (1) (b).
as §4

Data set [3] in a line: Visual cytotoxicity scoring in HFF cells. As to conditions: human, Table 1, at time of HCMV plaque enumeration, read-out: 50% Inhibitory Concentration Cytotoxicity HFF (visual). In kind it is cell-based.
From the text: (§6) Cytotoxicity produced in HFF and BSC-1 cells was estimated by visual scoring of cells not affected by virus infection in the HCMV and HSV-1 plaque reduction assays. Cytopathology was estimated at 35- and 60-fold magnification and scored on a zero to four plus basis. Wells were scored on the day of staining.
as §4

The nature of data set [4]: Visual cytotoxicity scoring in BSC-1 cells. Particulars: african green monkey, Table 1, at time of HSV-1 plaque enumeration, read-out: 50% Inhibitory Concentration Cytotoxicity BSC (visual). The data set is classed as cell-based.
From the text: as §6, §4

Data set [5] in a line: in vitro. As to conditions: human, kb cells. In kind it is cell-based, human. How it is done: KB or HFF cells were planted using a Costar Transplate-96 (Costar, Cambridge, Mass.) in Costar 96-well cluster dishes at a concentration of 10,000 to 12,000 cells per well. Wells were suspended in 200 μl of medium [MDM(H) plus 0.7 gm/liter NaCHO3 supplemented with 10% calf serum] per well. After incubation of 16 to 24 hours at 37° C. in a humidified atmosphere of 4% CO2 in air, […] of medium was removed per well. One-hundred μl of medium with or without compounds in twice their final concentrations was added to each well using a Titertek Multichannel Pipette. Final concentrations of compounds ranged from 0.1 to 320 μM. Fifty μl of medium containing radioactive precursors also was added to each well to give a final concentration to 1 to 3 μCi/ml of labeled precursor. [^3 H]Thd was diluted with unlabeled dThd to give a final concentration of 3 or 6 μM.
Logarithmic cell growth occurred during this time with continual uptake of labeled precursors. At the end of the incubation period, cells were individually harvested from each well using a Skatron Cell harvester (Skatronh, Inc., Sterling, Va.). Cultures for individual wells were harvested onto filter paper and washed free of unincorporated label with nine sequential washes with 5% trichloroacetic acid, nine washes with water, and nine with ethanol using the Skatron unit. Filters were dried, circles from individual cultures were punched from the filter mat and placed into mini-vials. Liquid scintillation solution was added, and radioactivity determined in a Beckman model LS8100 liquid scintillation spectrometer. All samples were counted for 2.0 minutes each, with three rounds of counting. Counts per minute were determined following the application of statistical methods to eliminate count rates which fell outside distribution limits defined by Chauvenet's rejection criterion.
All analyses were performed in triplicate. That is, three culture wells were used per time point, radioactive precursor, and drug concentration in all experiments. Results from triplicate assays were converted to percent of control and plotted as log dose-response curves from which 50% inhibitor (I50) concentrations were interpolated. Three concentrations of vidarabine were included on all plates as a positive control.
as §4

Data set [6] has as its system HCMV. The experiment in a line: HCMV titer, plaque or yield reduction. The data set is classed as cell-based, human cytomegalovirus (Towne strain) in HFF cells.
From the text: as §1, §2, §3, §5, §4

[7] abbreviates: Human betaherpesvirus 5, Table 2, read-out: HCMV Titer, Plaque or Yield Reduction, 50% Inhibitory Concentration.

Where only a bound is given, the exact number is not on record here.

Consider `Nc1ncnc2c1c(Br)cn2COC(CO)CO` [UMJD 183, 4-amino-5-bromo-7-[(1,3-dihydroxy-2-propoxy)methyl]-pyrrolo[2,3-d]pyrimidine], for which, in data set [1], the IC50 worked out at 1.6 µM. Further, the log reduction at 10 µM in data set [2] (FIG. 2, 10 μM) was ~5. Also, the IC90 in data set [2] was 1.9 µM. Besides, the CC50 in data set [3] is > 100 µM; in data set [4] it was > 100 µM; in data set [5], 25 µM. The “activity against HCMV (in words)” value in data set [6] is “most active”.

Take `Nc1ncnc2c1c(Cl)cn2COC(CO)CO` [UMJD 186, 4-amino-5-chloro-7-[(1,3-dihydroxy-2-propoxy)-methyl]pyrrolo[2,3-d]pyrimidine]: the IC50 in data set [1] was found to be 9.8 µM. Also, the log reduction at 100 µM in data set [2] (FIG. 2, 10-fold higher concentration than UMJD 183 (10 μM)) is 5. Moreover, in data set [2], the IC90 turned out to be 8 µM. For the same compound, the CC50 in data set [3], in data set [4] and in data set [5] was > 100 µM in each case.

Turning to `Nc1ncnc2c1c(I)cn2COCCO` [UMJD 104, 4-Amino-5-iodo-7-(2-hydroxyethoxymethyl)pyrrolo[2,3-d]-pyrimidine], the IC50 in data set [1] and in data set [6] (setting [7]) was 24 µM each time. Further, the IC90 in data set [2] amounted to 14 µM. Also, the values for the CC50 in data set [3], in data set [4] and in data set [5] were 100 µM, > 100 µM and 94 µM, respectively. Also, the “activity against HCMV (in words)” value in data set [6] is on record as “active”.

In the case of `Nc1ncnc2c1c(Br)cn2COCCO` [UMJD 102, 4-Amino-5-bromo-7-(2-hydroxyethoxymethyl)pyrrolo[2,3-d]-pyrimidine], the IC50 was 3.5 µM in data set [1] and 3.9 µM in data set [6] (Human betaherpesvirus 5, read-out: HCMV Titer, Plaque or Yield Reduction, 50% Inhibitory Concentration). Further, the IC90 in data set [2] worked out at 13 µM. Moreover, the CC50 in data set [3] was 100 µM; in data set [4] it was > 100 µM; in data set [5] it was 100 µM. Besides, the “activity against HCMV (in words)” value in data set [6] is recorded as “active”.

`Nc1nc2c(ncn2COCCO)c(=O)[nH]1` [Acyclovir, reference compound]: the IC50 in data set [1] and in data set [6] (setting [7]) was 63 µM in each case. Besides, in data set [2], the IC90 amounted to 90 µM. For the same compound, the CC50 in data set [3], in data set [4] and in data set [5] was > 100 µM in each case. The “activity against HCMV (in words)” value in data set [6] is reported as “only modest activity”.

As to `Nc1ncnc2c1c(Cl)cn2COCCO` [UMJD 100, 4-Amino-5-chloro-7-(2-hydroxyethoxymethyl)pyrrolo[2,3-d]-pyrimidine], the IC50 in data set [1] is 22 µM; in data set [6] (setting [7]), 16 µM. Also, in data set [2], the IC90 amounted to 46 µM. For the same compound, the CC50 was > 100 µM in data set [3], > 100 µM in data set [4] and 350 µM in data set [5]. In data set [6], the “activity against HCMV (in words)” value is recorded as “active”.

As to `Nc1nc(O)c2ncn(COC(CO)CO)c2n1` [Ganciclovir (DHPG), reference compound], the IC50 in data set [1] amounted to 8.7 µM; in data set [6] (setting [7]), 8.8 µM. For the same compound, the IC90 in data set [2] turned out to be 1.8 µM. Further, the CC50 in data set [3] is > 100 µM; in data set [4] it was > 100 µM; in data set [5], 1000 µM.

Consider `OCC(CO)OCn1cc(Br)c2c(NO)ncnc21` [UMJD 299, 4-hydroxylamino-5-bromo-7-[(1,3-dihydroxy-2-propoxy)methyl]pyrrolo[2,3-d]pyrimidine], for which, in data set [1], the IC50 is 1.2 µM. The IC90 in data set [2] worked out at 10 µM. For the same compound, the CC50 in data set [3] was > 100 µM; in data set [5], 357 µM. Moreover, the “activity against HCMV (in words)” value in data set [6] is “active and nearly as potent as the 4-amino analogs”.
